Measurements taken from patent US20010023252A1, “Novel compound” (SmithKline Beecham Plc, priority 1998, published 2001).

Assay: Aqueous solubility of the salt (stated in words)
Format: physicochemical
Conditions: water, compared with the hydrochloride salt

paroxetine methanesulfonate
aqueous solubility (in words): highly water soluble
aqueous solubility (in words) (listed as methanesulfonate salt of paroxetine): significantly more soluble than the hydrochloride salt
